In patent publication US7056679B2, “Target specific screening and its use for identifying target binders” (Antyra, Inc., priority 2001, dated 2006):

Experiments:
[1] = tested on: lactate dehydrogenase (LDH); assay: ELISA analysis of phage on LDH (irrelevant, non-specific target); format: binding; conditions: peptide binding to LDH polypeptide (non-specific binding); phage ELISA units read at 405 nm
In short: (§1)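 Phage from picked clones (M13KO7 helper) bound 2 hr at room temperature to wells coated overnight at 4 °C with 500 ng/well anti-ETAG antibody or LDH, milk-blocked. Detection with HRP-anti-M13 (1:3000) and ABTS at 405 nm; positive when A405 ≥2-fold over background.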

[2] = tested on: E-tag antibody; assay: ELISA analysis of phage on antibody raised against ETAG (positive control); conditions: peptide binding to E-tag antibody; phage ELISA units read at 405 nm
In short: as §1

[3] = target: T1, DGI-2 (Homo sapiens, UniProt Q15004); assay: ELISA analysis of phage on DGI-2 polypeptide (specific binding); conditions: for DGI-2 (OD): binding to DGI-2 polypeptide (specific binding), phage ELISA units read at 405 nm; for DGI-2/LDH (OD): ratio of specific binding to non-specific binding
T1 construct: encompassed the entire DGI-2 open reading frame (ORF); His-tag of vector pIVEX2.3-MCS (inferred from the vector and from the reverse primer lacking a stop codon); made in house; host or cells: cell-free in vitro translation (Rapid Translation System RTS, Roche; E. coli lysate)
T1 sequence (Q15004 1-111): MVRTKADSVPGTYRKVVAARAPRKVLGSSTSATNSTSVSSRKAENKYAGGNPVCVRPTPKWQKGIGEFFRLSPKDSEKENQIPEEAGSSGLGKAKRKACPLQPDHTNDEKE
In short: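 Recombinant DGI-2 from in vitro translation, LDH (non-specific) and controls were coated at 500 ng/well and blocked with 2% milk-PBS. Phage from individual clones bound for 2 hr at room temperature, then anti-M13-HRP with ABTS was read at 405 nm; a clone counted as positive at ≥2-fold over background.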

SRGMAEAQFSAWPVLAVFPL (DGI-2-20F-PP-H8; listed as Escherichia coli)
LDH (OD) [1]: 0.9 OD | ETAG (OD) [2]: 32.4 OD | DGI-2 (OD) [3]: 1.6 OD | DGI-2/LDH (OD) [3]: 1.9

KVWGCGARRGWERLGHLNQV (DGI-2-20F-PP-B10; listed as Escherichia coli)
LDH (OD) [1]: 0.8 OD | ETAG (OD) [2]: 27.1 OD | DGI-2 (OD) [3]: 1.9 OD | DGI-2/LDH (OD) [3]: 2.4

CAYRWGLFRGPGRVDYDLQVVGIMMWPGPIPDRSSRGSVA (DGI-2-40F-3-A7; listed as Escherichia coli)
LDH (OD) [1]: 0.8 OD | ETAG (OD) [2]: 8.7 OD | DGI-2 (OD) [3]: 0.9 OD | DGI-2/LDH (OD) [3]: 1.1

RVSYEMLGRRRRSMHGSSMR (DGI-2-20F-PP-A4; listed as Escherichia coli)
LDH (OD) [1]: 1.1 OD | ETAG (OD) [2]: 6.6 OD | DGI-2 (OD) [3]: 2.7 OD | DGI-2/LDH (OD) [3]: 2.6

LTPYSLARSWLSGRPSTGAT (DGI-2-20F-3-C12; listed as Escherichia coli)
LDH (OD) [1]: 1.0 OD | ETAG (OD) [2]: 15.1 OD | DGI-2 (OD) [3]: 3.2 OD | DGI-2/LDH (OD) [3]: 3.1

VCSGGKGTWLEIPDRVRSST (DGI-2-20F-PP-A22; listed as Escherichia coli)
LDH (OD) [1]: 1.0 OD | ETAG (OD) [2]: 44.1 OD | DGI-2 (OD) [3]: 3.3 OD | DGI-2/LDH (OD) [3]: 3.1

LSLLSVVVRSMGASAPQRQV (DGI-2-20F-3-A7; listed as Escherichia coli)
LDH (OD) [1]: 0.9 OD | ETAG (OD) [2]: 7.0 OD | DGI-2 (OD) [3]: 2.1 OD | DGI-2/LDH (OD) [3]: 2.4

RCFQDGRMLALSPTYLIRRSVSPLVVGPLPTP (DGI-2-40F-3-A24; listed as Escherichia coli)
LDH (OD) [1]: 0.9 OD | ETAG (OD) [2]: 11.7 OD | DGI-2 (OD) [3]: 1.3 OD | DGI-2/LDH (OD) [3]: 1.4

GQISLAGVAVCSSERMLLAFSSRVFLPGLKVPVTTSQRGS (DGI-2-40F-3-A8; listed as Escherichia coli)
LDH (OD) [1]: 0.8 OD | ETAG (OD) [2]: 1.5 OD | DGI-2 (OD) [3]: 0.8 OD | DGI-2/LDH (OD) [3]: 1.1

RGSLLLTLPRLSGAVGTAYG (DGI-2-20F-PP-B3; listed as Escherichia coli)
LDH (OD) [1]: 1.1 OD | ETAG (OD) [2]: 11.7 OD | DGI-2 (OD) [3]: 3.4 OD | DGI-2/LDH (OD) [3]: 3.0

VGQSSGDARPLANLFVFPFV (DGI-2-20F-PP-F12; listed as Escherichia coli)
LDH (OD) [1]: 0.9 OD | ETAG (OD) [2]: 47.6 OD | DGI-2 (OD) [3]: 2.1 OD | DGI-2/LDH (OD) [3]: 2.3

RNWLDKDCVWMGDCGARAGE (DGI-2-20F-4-E3; listed as Escherichia coli)
LDH (OD) [1]: 0.9 OD | ETAG (OD) [2]: 16.9 OD | DGI-2 (OD) [3]: 3.8 OD | DGI-2/LDH (OD) [3]: 4.1
